Test results: US20020161002A1, “Use of catecholamine reuptake inhibitors to enhance memory” (priority 2001, published 2002)

Assays:
rats = test: Activity level tests (10 minute session); conditions: 0.5 mg/kg; 10 minute period one hour after injection; FIGS. 16-21
IA memory in the rat = test: Inhibitory Avoidance (IA) task, normal rats; assay type: in vivo; conditions: for performance on the IA task, normal rats: one hour before, p<0.05 relative to all other groups; for long-term retention of the IA task: second retention test one week after the first, no additional training or drug
Procedure: An exemplary passive avoidance test utilizes an apparatus that consists of a lit chamber that can be separated from a dark chamber by a sliding door. At training, the animal is placed in the lit chamber for some period of time, and the door is opened. The animal moves to the dark chamber after a short delay—the latency—that is recorded. Upon entry into the dark chamber, the door is shut closed and a foot shock is delivered.
The Inhibitory Avoidance (IA) task is a well-studied behavioral paradigm which can provide the researcher with a consistent and long-lasting measure of memory. The paradigm consists of one training trial and one retention trial. Test articles may be administered to the rats either before or after training. […] The objective of the following experiments was to investigate the effects of methylphenidate on IA memory in the rat.

fornix lesion rats = test: Inhibitory Avoidance (IA) task, rats with lesions of the fornix (amnesic rats); assay type: in vivo, rat; conditions: one hour before; for performance of treated fornix animals compared with normal, saline injected animals: Student-Newman-Keuls post hoc test
From the text: Animal models for studying fornix-mediated memory consolidation have previously been described. See, for example, Taubenfield et al., Supra. The fornix-lesioned animals can be used for drug screening, e.g., to identify dosages of the subject reuptake inhibitors which enhance memory consolidation. The lesioned mammal can have a lesion of the fornix or a related brain structure that disrupts memory consolidation (e.g., perirhinal cortex, amygdala, medial septal nucleus, locus coeruleus, hippocampus, mammallary bodies). Lesions in the mammal can be produced by mechanical or chemical disruption. For example, the fornix lesion can be caused by surgical ablation, electrolytic, neurotoxic and other chemical ablation techniques, or reversible inactivation such as by injection of an anesthetic, e.g., tetrodotoxin or lidocaine, to temporarily arrest activity in the fornix.
In one embodiment, the animal can be a rat. Briefly, the animals are anesthetized, e.g., with intraperitoneal injections of a ketamine-xylazine mixture and positioned in a Kopf stereotaxic instrument. A sagittal incision is made in the scalp and a craniotomy is performed extending 2.0 mm posterior and 3.0 mm lateral from Bregma. An aspirative device, e.g., with a 20 gauge tip, is mounted to a stereotaxic frame (Kopf Instruments) and fimbria-fornix is aspirated by placing the suction tip at the correct sterotaxic location in the animals brain. Unilateral aspirative lesions are made by suction through the cingulate cortex, completely transecting the fimbria fornix unilaterally, and (optionally) removing the dorsal tip of the hippocampus as well as the overlying cingulate cortex to inflict a partial denervation on the hippocampus target. See also, Gage et al., (1983) Brain Res. 268:27 and Gage et al. (1986) Neuroscience 19:241.
The Inhibitory Avoidance (IA) task is a well-studied behavioral paradigm which can provide the researcher with a consistent and long-lasting measure of memory. The paradigm consists of one training trial and one retention trial. Test articles may be administered to the rats either before or after training. Improved memory, as a result of test compound administration, is evident as increased latency on the retention trial. The objective of the following experiments was to investigate the effects of methylphenidate on IA memory in the rat.
In the next experiment, we investigated whether the performance of amnesic rats could be improved by administration of methylphenidate. In this experiment, control rats and rats with lesions of the fornix received injections of either saline or methylphenidate (5 mg/kg), and one hour later, were tested on the IA task.
In the next experiment, we investigated whether the performance of amnesic rats could be improved by administration of amphetamine. […]

## C[C@@H](N)Cc1ccccc1 [R-(−)amphetamine]
rats
  activity levels (distance, movements, movement time, rears, stereotyped movements, resting time) versus saline control: no significant effects on the activity levels
IA memory in the rat; 0.5 mg/kg one hour prior to training, 24 hour retention interval, 0.46 mA shock, unpaired t-test p<0.002, FIG. 15
  retention of the IA task (second, verifying experiment): significantly improved retention of the task
IA memory in the rat; 0.5, 1.0, 2.0 or 4.0 mg/kg one hour prior to training, 24 hour retention interval, 0.46 mA shock, FIG. 14
  dose required for improved retention of the IA task, compared with S-(+)amphetamine: a much lower dose of R-(−)amphetamine is required for the same improved retention effect
IA memory in the rat; 1.0, 2.0 or 4.0 mg/kg versus 0.5 mg/kg, one hour prior to training, 24 hour retention interval, FIG. 14
  retention of the IA task at doses above 0.5 mg/kg: did not further improve the retention results

## COC(=O)C(c1ccccc1)C1CCCCN1 (centres unmarked) [methylphenidate]
Fornix lesion rats; 5 mg/kg, FIG. 3
  performance on the IA task, fornix lesion rats: appeared to improve the performance of the fornix lesion rats
Fornix lesion rats; 5 mg/kg
  performance of treated fornix animals compared with normal, saline injected animals: not significantly different from normal, saline injected animals
IA memory in the rat; 5 mg/kg, FIG. 3
  performance on the IA task, normal rats: dramatically enhanced the performance of normal rats
IA memory in the rat; 50 standard units/kg, injected thirty minutes prior to training, FIG. 1
  retention of the IA task: improved retention
IA memory in the rat; 50 standard units/kg, time of administration varied
  optimal pre-training drug administration time: most effective when administered to the rats one hour prior to training
IA memory in the rat; 50 standard units/kg, unpaired t-test p<0.03, FIG. 2
  retention of the IA task (second, verifying experiment): significantly improved retention of the task
IA memory in the rat; 100 standard units/kg, injected thirty minutes prior to training, FIG. 1
  retention of the IA task: no effect
IA memory in the rat; 150 standard units/kg, injected thirty minutes prior to training, FIG. 1
  retention of the IA task: no effect
IA memory in the rat
  long-term retention of the IA task: this improvement is long lasting

## C[C@H](N)Cc1ccccc1 [S-(+)amphetamine]
Fornix lesion rats; 200 standard units/kg, FIG. 8
  performance on the IA task, fornix lesion rats: appeared to improve the performance of the fornix lesion rats
Fornix lesion rats; 200 standard units/kg
  performance of treated fornix animals compared with normal, saline injected animals: not significantly different from normal, saline injected animals
IA memory in the rat; 2 mg/kg (200 standard units) one hour prior to training, 24 hour retention interval, 0.46 mA shock, FIG. 9
  retention of the IA task: improved retention of the task
IA memory in the rat; 25 standard units/kg, injected thirty minutes prior to training, FIG. 4
  retention of the IA task: no effect
IA memory in the rat; 50 standard units/kg, injected thirty minutes prior to training, FIG. 4
  retention of the IA task: no effect
IA memory in the rat; 100 standard units/kg, injected thirty minutes prior to training, FIG. 4
  retention of the IA task: no effect
IA memory in the rat; 200 standard units, injected thirty minutes prior to training, FIG. 4
  retention of the IA task: improved retention of the task
IA memory in the rat; 200 standard units/kg, FIG. 8
  performance on the IA task, normal rats: dramatically enhanced the performance of normal rats
IA memory in the rat; 200 standard units/kg, unpaired t-test p<0.01, FIG. 5
  retention of the IA task (second, verifying experiment): significantly improved retention of the task
IA memory in the rat; F(4,47)=3.688, p<0.01, FIG. 7
  long-term retention of the IA task: performed significantly better than rats that had received control injections of vehicle solution
